Measurements from paper PMC8495142 (Drug Design, Development and Therapy, 2021).

Assays:
[1] = type: in vitro ADME, beagle dog; details: all four storage conditions, 2.5, 50 and 150 ng/mL
[2] = system: CYP3A; details: in vitro; cited from earlier work
[3] = system: CYP2D6; details: in vitro; cited from earlier work

Stability in beagle dog plasma (in words) [1]: stable
SMILES: CC[C@@H]1CN(C(=O)NCC(F)(F)F)C[C@@H]1c1cnc2cnc3[nH]ccc3n12 [Upadacitinib]
Metabolism by CYP3A [2]: mainly metabolized by CYP3A | Metabolism by CYP2D6 [3]: a small part by CYP2D6
